Results on 5 compounds are retold here after patent US20040092595A1, “Analgesic agent” (Seiwa Pharmaceuticals, Ltd., priority 2000, published 2004).

Data set [1] concerns rats. The experiment in a line: Acute gastric ulcer test. Type of data set: in vivo. On the procedure:
An acute gastric ulcer test was carried out using sample 2 and indometacin as test drugs. […] By contrast, for sample 2, the same test was carried out, except that, instead of indometacin, sample 2 was orally administered at a dose of 10 to 300 mg/kg.

In data set [2] the test system is mice. The experiment in a line: Analgesic, anti-inflammatory activity test (formalin test). The data set is classed as in vivo. Particulars: male ICR mice, 1.0% formalin (20 μl injected), sample 40 mg/kg intraperitoneal, 15 min before stimulation, n=10, average value±standard error; for 1st phase response (0 to 10 min), licking time: control 121.33 ± 5.32; for 2nd phase response (10 to 30 min), licking time: control 183.51 ± 20.10. Here is the method: An analgesic, anti-inflammatory activity test (the so-called “formalin test”) was carried out using samples 1 to 9 as test drugs.
A 1.0% formalin solution (20 μl) was injected as a stimulant into the hypoderm of the planta depis in the hind leg of mice (five-week-old male ICR mice which, after purchase, had been subjected to quarantine and acclimation for one week). An act of licking the hind leg by the mice for alleviating the pain was then successively measured with a stopwatch 5 min by 5 min for 30 min. In this case, for each of the test drugs (samples 1 to 9), a suspension corresponding to a dose of 40 mg/kg was prepared using an aqueous solution of 0.5% polyoxyethylene sorbitan monooleate (Tween 80; a product of Atlas). The suspension (100 μl) for each sample was intraperitoneally administered to the mice 15 min before the stimulation. For a control group, the same volume of 0.5% Tween 80 was intraperitoneally administered to the mice.
It is generally known that the formalin test as described above causes a biphasic response, that is, the following first-phase response and second-phase response.
The first-phase response refers to a response indicated by pain in a 0 to 10 min period after the stimulation with formalin, that is, a response indicated by pain caused by direct stimulation of the sensory nerve at its end upon the injection of formalin. At the present time, only narcotic analgesics such as morphine are known to have inhibitory activity against this first-phase response. On the other hand, the second-phase response refers to a response indicated by pain in a 10 to 30 min period after the stimulation with formalin, that is, a response indicated by pain attributable to inflammation caused upon the injection of formalin. This response can be inhibited by conventional analgesics such as aspirin.
The analgesic, anti-inflammatory activity was evaluated in two separate phases, a phase from 0 min to 10 min after the administration and a phase from 10 min to 30 min after the administration. For each of the phases, the total number of seconds for which the mouse licked the hind leg (licking time) was calculated, and this value was compared with the value for the control.

Take `O=C(O)C1C(c2ccc(O)cc2)C(C(=O)O)C1c1ccc(O)cc1` (stereo not drawn) [Sample 2, 4,4′-dihydroxy-α-truxillic acid]: the “occurrence of a gastric ulcer” value in data set [1] (orally administered at a dose of 10 to 300 mg/kg, same test as for indometacin) was “an ulcer did not occur at all”. For the same compound, in data set [2], the “1st phase response (0 to 10 min), licking time” value (“1st phase response (0 to 10 min)” for short) was determined as 102.34 ± 4.09 s and the “2nd phase response (10 to 30 min), licking time” value (from here on “2nd phase response”) worked out at 7.12 ± 3.29 s.
As for `O=C(O)C1C(C(=O)O)C(c2ccccc2)C1c1ccccc1` (stereo not drawn) [Sample 4, β-truxinic acid], in data set [2], the “1st phase response (0 to 10 min)” value turned out to be 59.40 ± 7.19 s and the “2nd phase response” value is 74.75 ± 11.94 s.
In the case of `O=C(O)C1C(C(=O)O)C(c2ccc(Cl)cc2)C1c1ccc(Cl)cc1` (stereo not drawn) [Sample 6, 4,4′-dichloro-β-truxinic acid], in data set [2], the “1st phase response (0 to 10 min)” value stood at 59.37 ± 6.04 s and the “2nd phase response” value was determined as 34.44 ± 9.13 s.
`COC(=O)C1C(c2ccc(O)cc2)C(C(=O)OC)C1c1ccc(O)cc1` (stereo not drawn) [Sample 8, dimethyl 4,4′-dihydroxy-α-truxillate]: in data set [2], the “1st phase response (0 to 10 min)” value came to 89.65 ± 4.67 s and the “2nd phase response” value was 122.70 ± 7.16 s.
On to `COc1ccc2c(c1)c(CC(=O)O)c(C)n2C(=O)c1ccc(Cl)cc1` [indometacin, reference compound], for which, in data set [1] (orally administered at a dose of not less than 50 mg/kg, seven hr after the administration), the “occurrence of a gastric ulcer” value is “the occurrence of a gastric ulcer was clearly learned”.
